Test results from US11034672B1, “Tyrosine kinase inhibitor compositions, methods of making and methods of use” (Black Diamond Therapeutics, Inc., priority 2018, dated 2021).
pIC50: −log10 of the molar value.

How the values were obtained:
Assay type in all cases: cell-based
EGFR WT [1] = molecular target: T1, EGFR WT (Homo sapiens, UniProt P00533); test: Activity for inhibiting EGFR (Table A), EGFR WT; details: read-out: EGFR WT, potency code (IC50)
EGFR V3 [2] = molecular target: T2, EGFR V3 (Homo sapiens, UniProt P00533, DELINS30-297G); test: Activity for inhibiting EGFR (Table A), EGFR V3 (EGFR-Viii); details: read-out: EGFR V3, potency code (IC50)
T2 construct: expressed in transfected cells; host or cells: BaF3 (murine pro-B), retroviral pMXs-IRES-Blasticidin

EGFR NPH [3] = molecular target: T3, EGFR NPH (Homo sapiens, UniProt P00533, DUP771-773); test: Activity for inhibiting EGFR (Table A), EGFR NPH; details: read-out: EGFR NPH, potency code (IC50)
T3 construct: expressed in transfected cells; host or cells: BaF3 (murine pro-B), retroviral pMXs-IRES-Blasticidin

EGFR SVD [4] = molecular target: T4, EGFR SVD (Homo sapiens, UniProt P00533, DUP768-770); test: Activity for inhibiting EGFR (Table A), EGFR SVD; details: read-out: EGFR SVD, potency code (IC50)
T4 construct: expressed in transfected cells; host or cells: BaF3 (murine pro-B), retroviral pMXs-IRES-Blasticidin

HER2 WT [5] = molecular target: T5, HER2 WT (Homo sapiens, UniProt P04626); test: Activity for inhibiting HER2 (Table B), HER2 WT
HER2 S310F [6] = molecular target: T6, HER2 S310F (Homo sapiens, UniProt P04626, S310F); test: Activity for inhibiting HER2 (Table B), HER2 S310F; details: read-out: HER2 S310F, potency code (IC50)
T6 construct: expressed in transfected cells; host or cells: BaF3 (murine pro-B)
Description: (§1) EC50 values were determined with the same application.

EGFR WT [7] = molecular target: T1, EGFR WT; test: BaF3 cell proliferation assay, EGFR WT (Table A); details: potency code, 3 days, CellTiterGlo, read-out: EGFR WT (Activity for Inhibiting EGFR)
Method in brief: (§2)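 Steps: HEK 293T transfected with pMXs-IRES-Blasticidin kinase vector plus Gag-Pol and VSV-G; virus harvested at 24 and 48 hrs; BaF3 infected twice by centrifugation, Blasticidin-selected, then grown without IL-3. Proliferation EC50 measured.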

EGFR V3 [8] = molecular target: T2, EGFR V3; test: BaF3 cell proliferation assay, EGFR V3 (Table A); details: potency code, 3 days, CellTiterGlo, read-out: EGFR V3 (Activity for Inhibiting EGFR)
Method in brief: as §2

EGFR NPH [9] = molecular target: T3, EGFR NPH; test: BaF3 cell proliferation assay, EGFR NPH (Table A); details: potency code, 3 days, CellTiterGlo, read-out: EGFR NPH (Activity for Inhibiting EGFR)
Description: (§3) Retroviral Production: EGFR mutants were subcloned into pMXs-IRES-Blasticidin (RTV-016, Cell Biolabs, San Diego, Calif.). Retroviral expression vector retrovirus was produced by transient transfection of HEK 293T cells with the retroviral EGFR mutant expression vector pMXs-IRES-Blasticidin (RTV-016, Cell Biolabs), pCMV-Gag-Pol vector and pCMV-VSV-G-Envelope vector. Briefly, HEK 293T/17 cells were plated in 100 mm collagen coated plate (354450, Corning Life Sciences, Tewksbury, Mass.) (4×10^5 per plate) and incubated overnight. The next day, retroviral plasmids (3 μg of EGFR mutant, 1.0 μg of pCMV-Gag-Pol and 0.5 μg pCMV-VSV-G) were mixed in 500 μl of Optimem (31985, Life Technologies). The mixture was incubated at room temperature for 5 min and then added to Optimem containing transfection reagent Lipofectamine (11668, Invitrogen) and incubated for 20 minutes. Mixture was then added dropwise to HEK 293T cells. The next day the medium was replaced with fresh culture medium and retrovirus was harvested @ 24 and 48 hrs.
(§4) Generation of EGFR mutant stable cell lines: BaF3 cells (1.5E5 cells) were infected with 1 ml of viral supernatant supplemented with 8 μg/ml polybrene by centrifuging for 30 min at 1000 rpm. Cells were placed in a 37° C. incubator overnight. Cells were then spun for 5 minutes to pellet the cells. Supernatant was removed and cells re-infected a fresh 1 ml of viral supernatant supplemented with 8 μg/ml polybrene by centrifuging for 30 min at 1000 rpm. Cells were placed in 37° C. incubator overnight. […] After 48 hours cells were selected for retroviral infection in 10 μg/ml Blasticidin for one week. Blasticidin resistant populations were washed twice in phosphate buffered saline before plating in media lacking IL-3 to select for IL-3 independent growth.
as §1

EGFR SVD [10] = molecular target: T4, EGFR SVD; test: BaF3 cell proliferation assay, EGFR SVD (Table A); details: potency code, 3 days, CellTiterGlo, read-out: EGFR SVD (Activity for Inhibiting EGFR)
Description: as §3, §4, §1

HER2 WT [11] = molecular target: T5, HER2 WT; test: BaF3 cell proliferation assay, HER2 WT (Table B); details: potency code, 3 days, CellTiterGlo, read-out: HER2 WT (Activity for Inhibiting HER2)
HER2 S310F [12] = molecular target: T6, HER2 S310F; test: BaF3 cell proliferation assay, HER2 S310F (Table B); details: potency code, 3 days, CellTiterGlo, read-out: HER2 S310F (Activity for Inhibiting HER2)
HER2 YVMA [13] = molecular target: T7, HER2 YVMA (Homo sapiens, UniProt P04626, INS775YVMA); test: Activity for inhibiting HER2 (Table B), HER2 YVMA; details: read-out: HER2 YVMA, potency code (IC50)
T7 construct: expressed in transfected cells; host or cells: BaF3 (murine pro-B)
Description: as §1

HER2 YVMA [14] = molecular target: T7, HER2 YVMA; test: BaF3 cell proliferation assay, HER2 YVMA (Table B); details: potency code, 3 days, CellTiterGlo, read-out: HER2 YVMA (Activity for Inhibiting HER2)
[15] = Table B, read-out: HER2 WT, potency code (IC50)
[16] = text lists of compounds, read-out: IC50 value for inhibiting wild-type HER2

T2 sequence (P00533 with tags, fused parts or gaps DELINS30-297G): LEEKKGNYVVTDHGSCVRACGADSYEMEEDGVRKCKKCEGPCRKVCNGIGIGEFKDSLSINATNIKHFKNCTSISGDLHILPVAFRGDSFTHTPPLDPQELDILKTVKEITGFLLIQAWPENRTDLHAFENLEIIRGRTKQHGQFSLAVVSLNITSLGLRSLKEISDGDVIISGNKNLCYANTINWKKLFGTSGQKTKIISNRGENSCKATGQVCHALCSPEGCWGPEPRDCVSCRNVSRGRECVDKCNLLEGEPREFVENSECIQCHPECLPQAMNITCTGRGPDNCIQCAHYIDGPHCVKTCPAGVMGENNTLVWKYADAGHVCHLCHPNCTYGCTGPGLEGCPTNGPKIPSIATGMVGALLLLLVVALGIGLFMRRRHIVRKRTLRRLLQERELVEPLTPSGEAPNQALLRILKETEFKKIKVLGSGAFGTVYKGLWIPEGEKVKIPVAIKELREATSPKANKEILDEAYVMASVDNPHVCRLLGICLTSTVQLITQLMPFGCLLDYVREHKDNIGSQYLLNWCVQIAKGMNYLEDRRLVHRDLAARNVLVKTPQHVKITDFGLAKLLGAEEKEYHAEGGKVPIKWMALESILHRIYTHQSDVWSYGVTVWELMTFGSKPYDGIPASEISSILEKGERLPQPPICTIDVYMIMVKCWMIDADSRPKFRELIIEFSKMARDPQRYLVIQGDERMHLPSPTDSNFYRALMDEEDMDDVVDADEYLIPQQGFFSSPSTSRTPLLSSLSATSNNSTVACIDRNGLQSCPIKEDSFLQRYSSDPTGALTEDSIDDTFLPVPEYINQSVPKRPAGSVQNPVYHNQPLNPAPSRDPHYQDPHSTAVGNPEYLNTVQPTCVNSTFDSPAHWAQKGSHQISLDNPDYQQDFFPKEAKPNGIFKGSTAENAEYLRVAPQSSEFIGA
T1 sequence (P00533 25-1210 N540K): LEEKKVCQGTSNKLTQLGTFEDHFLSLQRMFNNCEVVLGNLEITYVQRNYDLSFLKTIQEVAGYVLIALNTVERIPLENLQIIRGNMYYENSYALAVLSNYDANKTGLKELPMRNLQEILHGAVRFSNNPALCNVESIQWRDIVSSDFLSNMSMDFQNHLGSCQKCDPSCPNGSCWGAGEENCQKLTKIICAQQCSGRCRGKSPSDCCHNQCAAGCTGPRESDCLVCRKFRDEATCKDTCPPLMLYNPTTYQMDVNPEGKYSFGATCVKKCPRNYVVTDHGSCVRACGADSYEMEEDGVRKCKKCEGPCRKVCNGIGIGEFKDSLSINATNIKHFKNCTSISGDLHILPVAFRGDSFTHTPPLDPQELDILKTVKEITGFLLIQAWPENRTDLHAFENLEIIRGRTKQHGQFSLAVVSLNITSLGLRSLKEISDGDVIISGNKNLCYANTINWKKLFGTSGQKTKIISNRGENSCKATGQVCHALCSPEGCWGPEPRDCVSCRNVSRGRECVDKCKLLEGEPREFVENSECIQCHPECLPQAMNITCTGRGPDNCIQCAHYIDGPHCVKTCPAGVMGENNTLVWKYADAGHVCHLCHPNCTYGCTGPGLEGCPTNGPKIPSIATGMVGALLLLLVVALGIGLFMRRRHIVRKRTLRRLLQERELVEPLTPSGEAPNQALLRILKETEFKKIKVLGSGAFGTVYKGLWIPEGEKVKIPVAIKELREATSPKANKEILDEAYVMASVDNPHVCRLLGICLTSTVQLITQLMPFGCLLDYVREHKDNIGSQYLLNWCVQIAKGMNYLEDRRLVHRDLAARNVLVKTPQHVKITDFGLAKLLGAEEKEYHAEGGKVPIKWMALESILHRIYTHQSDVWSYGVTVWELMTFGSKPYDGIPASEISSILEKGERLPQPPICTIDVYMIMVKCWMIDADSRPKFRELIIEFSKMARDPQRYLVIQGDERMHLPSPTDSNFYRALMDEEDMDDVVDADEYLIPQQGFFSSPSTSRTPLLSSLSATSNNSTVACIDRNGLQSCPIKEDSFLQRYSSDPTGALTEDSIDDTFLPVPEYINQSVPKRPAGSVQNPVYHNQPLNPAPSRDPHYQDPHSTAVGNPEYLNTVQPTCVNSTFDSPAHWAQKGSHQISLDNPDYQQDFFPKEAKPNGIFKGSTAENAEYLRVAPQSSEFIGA
T3 sequence (P00533 with tags, fused parts or gaps DUP771-773): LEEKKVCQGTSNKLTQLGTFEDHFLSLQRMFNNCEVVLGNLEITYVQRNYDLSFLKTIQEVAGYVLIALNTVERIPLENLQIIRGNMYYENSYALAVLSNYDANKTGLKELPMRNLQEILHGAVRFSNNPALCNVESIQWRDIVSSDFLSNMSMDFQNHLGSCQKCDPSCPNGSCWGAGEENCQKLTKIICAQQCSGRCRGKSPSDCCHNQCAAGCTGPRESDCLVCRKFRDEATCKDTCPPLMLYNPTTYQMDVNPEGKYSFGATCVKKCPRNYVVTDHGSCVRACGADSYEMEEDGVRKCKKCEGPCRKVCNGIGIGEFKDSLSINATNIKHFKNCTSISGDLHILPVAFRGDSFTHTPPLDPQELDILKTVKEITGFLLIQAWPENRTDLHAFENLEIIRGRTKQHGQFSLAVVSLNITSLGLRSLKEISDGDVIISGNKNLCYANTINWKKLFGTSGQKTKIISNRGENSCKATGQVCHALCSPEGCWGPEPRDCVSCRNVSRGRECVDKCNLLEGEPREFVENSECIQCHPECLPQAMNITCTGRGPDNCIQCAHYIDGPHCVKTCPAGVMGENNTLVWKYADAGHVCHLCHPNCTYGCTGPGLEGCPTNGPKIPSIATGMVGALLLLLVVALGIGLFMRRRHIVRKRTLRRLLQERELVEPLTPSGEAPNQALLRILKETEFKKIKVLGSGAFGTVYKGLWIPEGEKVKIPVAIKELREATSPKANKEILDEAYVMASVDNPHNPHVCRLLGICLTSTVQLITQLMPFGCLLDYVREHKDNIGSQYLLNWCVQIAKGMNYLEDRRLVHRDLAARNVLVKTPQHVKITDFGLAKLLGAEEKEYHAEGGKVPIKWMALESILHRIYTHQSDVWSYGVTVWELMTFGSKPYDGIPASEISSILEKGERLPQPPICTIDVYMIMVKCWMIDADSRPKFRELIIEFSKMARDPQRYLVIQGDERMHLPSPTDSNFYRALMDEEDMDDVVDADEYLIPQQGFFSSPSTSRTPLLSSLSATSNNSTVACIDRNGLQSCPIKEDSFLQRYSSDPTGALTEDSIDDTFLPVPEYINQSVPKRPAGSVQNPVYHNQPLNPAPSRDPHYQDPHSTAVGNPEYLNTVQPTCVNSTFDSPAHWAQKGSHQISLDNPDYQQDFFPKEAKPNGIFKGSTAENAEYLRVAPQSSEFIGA
T4 sequence (P00533 with tags, fused parts or gaps DUP768-770): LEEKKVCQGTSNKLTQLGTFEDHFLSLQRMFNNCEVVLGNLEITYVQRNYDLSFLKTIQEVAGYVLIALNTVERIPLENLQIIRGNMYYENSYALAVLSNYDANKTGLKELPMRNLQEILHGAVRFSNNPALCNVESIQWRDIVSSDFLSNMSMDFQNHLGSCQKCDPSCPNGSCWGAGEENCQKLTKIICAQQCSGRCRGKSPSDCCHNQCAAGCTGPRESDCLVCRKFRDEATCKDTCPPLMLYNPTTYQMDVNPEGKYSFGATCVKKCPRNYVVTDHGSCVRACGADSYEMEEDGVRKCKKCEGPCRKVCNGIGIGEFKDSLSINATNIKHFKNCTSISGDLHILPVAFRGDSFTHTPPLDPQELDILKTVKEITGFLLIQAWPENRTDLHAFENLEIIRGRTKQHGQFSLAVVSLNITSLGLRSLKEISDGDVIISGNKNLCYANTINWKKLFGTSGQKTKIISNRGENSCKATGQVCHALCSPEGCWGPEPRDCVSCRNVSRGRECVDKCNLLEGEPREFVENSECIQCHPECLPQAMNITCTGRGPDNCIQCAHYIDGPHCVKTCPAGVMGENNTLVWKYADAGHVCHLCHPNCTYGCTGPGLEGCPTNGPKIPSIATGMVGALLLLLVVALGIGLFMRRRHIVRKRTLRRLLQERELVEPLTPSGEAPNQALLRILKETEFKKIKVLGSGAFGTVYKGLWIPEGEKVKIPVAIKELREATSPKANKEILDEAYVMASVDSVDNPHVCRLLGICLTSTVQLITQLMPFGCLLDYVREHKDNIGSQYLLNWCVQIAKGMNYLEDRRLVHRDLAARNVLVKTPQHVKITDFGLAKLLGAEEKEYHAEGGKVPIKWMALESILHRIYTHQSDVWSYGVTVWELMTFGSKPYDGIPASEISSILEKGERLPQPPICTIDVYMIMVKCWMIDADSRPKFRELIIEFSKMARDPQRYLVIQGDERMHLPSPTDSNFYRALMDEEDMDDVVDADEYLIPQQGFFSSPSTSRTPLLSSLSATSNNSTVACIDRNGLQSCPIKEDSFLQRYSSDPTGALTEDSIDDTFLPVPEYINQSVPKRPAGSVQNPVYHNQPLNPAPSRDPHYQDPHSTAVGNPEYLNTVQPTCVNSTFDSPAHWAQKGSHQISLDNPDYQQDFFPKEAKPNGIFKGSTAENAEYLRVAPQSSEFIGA

SMILES	pIC50 (EGFR WT [1])	pIC50 (EGFR V3 [2])	pIC50 (EGFR NPH [3])	pIC50 (EGFR SVD [4])	pIC50 (HER2 WT [5]; [15])	pIC50 (HER2 WT [5]; [16])	pIC50 (HER2 S310F [6])	pIC50 (EGFR WT [7])	pIC50 (EGFR V3 [8])	pIC50 (EGFR NPH [9])	pIC50 (EGFR SVD [10])	pIC50 (HER2 WT [11])	pIC50 (HER2 S310F [12])	pIC50 (HER2 YVMA [13])	pIC50 (HER2 YVMA [14])
C=CC(=O)Nc1cc2c(Nc3ccc(OCc4ccccn4)c(Cl)c3)ncnc2cc1OCCCN1CC2CC1CO2 (stereo not shown) [compound 20]	6.52 to 6.70	7.52 to 7.70	7.70 to 8.00	7.70 to 8.00	> 8.30	≥ 8.00	7.70 to 8.00	6.52 to 6.70	7.52 to 7.70	7.70 to 8.00	7.70 to 8.00	> 8.30	7.70 to 8.00	7.70 to 8.00	7.70 to 8.00
C=CC(=O)Nc1cc2c(Nc3ccc(OCc4ccccn4)c(Cl)c3)ncnc2cc1OCC1CCCN1 (stereo not shown) [compound 13]	6.30 to 6.52	7.00 to 7.30	6.30 to 6.52	6.52 to 6.70	8.00 to 8.30	≥ 7.70	7.30 to 7.52	6.30 to 6.52	7.00 to 7.30	6.30 to 6.52	6.52 to 6.70	8.00 to 8.30	7.30 to 7.52	6.30 to 6.52	6.30 to 6.52
C=CC(=O)Nc1cc2c(Nc3ccc(OCc4ccccn4)c(Cl)c3)ncnc2cc1OCCN(C)C [compound 19]	6.52 to 6.70	7.52 to 7.70	6.70 to 7.00	6.70 to 7.00	8.00 to 8.30	≥ 8.00	7.52 to 7.70	6.52 to 6.70	7.52 to 7.70	6.70 to 7.00	6.70 to 7.00	8.00 to 8.30	7.52 to 7.70	6.70 to 7.00	6.70 to 7.00
C=CC(=O)Nc1cc2c(Nc3ccc(OCc4ccccn4)c(Cl)c3)ncnc2cc1OCCC1(N(C)C)CC1 [compound 102, N-(4-((3-chloro-4-(pyridin-2-ylmethoxy)phenyl)amino)-7-(2-(1-(dimethylamino)cyclopropyl)ethoxy)quinazolin-6-yl)acrylamide]	6.00 to 6.30	7.30 to 7.52	7.00 to 7.30	7.30 to 7.52	–	–	7.52 to 7.70	6.00 to 6.30	7.30 to 7.52	7.00 to 7.30	7.30 to 7.52	–	7.52 to 7.70	7.00 to 7.30	7.00 to 7.30
C=CC(=O)Nc1cc2c(Nc3ccc(Oc4ccc(C)nc4)c(C)c3)ncnc2cc1OC1CCN(C)C1 (stereo not shown) [compound 68]	6.00 to 6.30	6.70 to 7.00	6.00 to 6.30	6.00 to 6.30	7.70 to 8.00	≥ 7.70	7.30 to 7.52	6.00 to 6.30	6.70 to 7.00	6.00 to 6.30	6.00 to 6.30	7.70 to 8.00	7.30 to 7.52	6.30 to 6.52	6.30 to 6.52
C=CC(=O)Nc1cc2c(Nc3ccc(OCc4ccccn4)c(Cl)c3)ncnc2cc1C#CC(C)(C)N1CCCC1 [compound 84, N-(4-((3-chloro-4-(pyridin-2-ylmethoxy)phenyl)amino)-7-(3-methyl-3-(pyrrolidin-1-yl)but-1-yn-1-yl)quinazolin-6-yl)acrylamide]	6.00 to 6.30	7.52 to 7.70	7.00 to 7.30	7.00 to 7.30	–	–	8.00 to 8.30	6.00 to 6.30	7.52 to 7.70	7.00 to 7.30	7.00 to 7.30	–	8.00 to 8.30	7.30 to 7.52	7.30 to 7.52

Now from value to compound:

pIC50 (EGFR WT [1])	pIC50 (EGFR V3 [2])	pIC50 (EGFR NPH [3])	pIC50 (EGFR SVD [4])	pIC50 (HER2 WT [5]; [15])	pIC50 (HER2 WT [5]; [16])	pIC50 (HER2 S310F [6])	pIC50 (EGFR WT [7])	pIC50 (EGFR V3 [8])	pIC50 (EGFR NPH [9])	pIC50 (EGFR SVD [10])	pIC50 (HER2 WT [11])	pIC50 (HER2 S310F [12])	pIC50 (HER2 YVMA [13])	pIC50 (HER2 YVMA [14])	SMILES
6.30 to 6.52	7.00 to 7.30	6.30 to 6.52	6.30 to 6.52	7.30 to 7.52	≥ 7.30	7.00 to 7.30	6.30 to 6.52	7.00 to 7.30	6.30 to 6.52	6.30 to 6.52	7.30 to 7.52	7.00 to 7.30	–	–	C=CC(=O)Nc1cc2c(Nc3ccc(OCc4ccccn4)c(Cl)c3)c(C#N)cnc2cc1OCCN1CCOCC1 [compound 11]
< 6.00	7.30 to 7.52	6.30 to 6.52	6.52 to 6.70	7.70 to 8.00	≥ 7.70	7.00 to 7.30	< 6.00	7.30 to 7.52	6.30 to 6.52	6.52 to 6.70	7.70 to 8.00	7.00 to 7.30	6.00 to 6.30	6.00 to 6.30	C=CC(=O)Nc1cc2c(Nc3ccc(OCc4ccccn4)c(Cl)c3)ncnc2cc1N1CCC(N(C)C)CC1 [compound 78]
< 6.00	7.00 to 7.30	6.30 to 6.52	6.30 to 6.52	7.30 to 7.52	≥ 7.30	7.00 to 7.30	< 6.00	7.00 to 7.30	6.30 to 6.52	6.30 to 6.52	7.30 to 7.52	7.00 to 7.30	6.30 to 6.52	6.30 to 6.52	C=CC(=O)Nc1cc2c(Nc3ccc(Oc4ccccc4)cc3)ncnc2cc1OCCN1CCOCC1 [compound 63]
6.52 to 6.70	7.70 to 8.00	6.52 to 6.70	6.52 to 6.70	8.00 to 8.30	≥ 8.00	7.52 to 7.70	6.52 to 6.70	7.70 to 8.00	6.52 to 6.70	6.52 to 6.70	8.00 to 8.30	7.52 to 7.70	6.30 to 6.52	6.30 to 6.52	C=CC(=O)Nc1cc2c(Nc3cc(Cl)c(OCc4ccccn4)cc3F)ncnc2cc1OC1CCN(C)C1 (stereo not shown) [compound 60]
7.00 to 7.30	7.52 to 7.70	7.52 to 7.70	7.70 to 8.00	> 8.30	≥ 8.30	8.00 to 8.30	7.00 to 7.30	7.52 to 7.70	7.52 to 7.70	7.70 to 8.00	> 8.30	8.00 to 8.30	7.30 to 7.52	7.30 to 7.52	C=CC(=O)Nc1cc2c(Nc3ccc(OCc4ccccn4)c(Cl)c3)ncnc2cc1OCCCN1CCCC1 [compound 22]
6.52 to 6.70	7.52 to 7.70	7.52 to 7.70	7.52 to 7.70	–	–	8.00 to 8.30	6.52 to 6.70	7.52 to 7.70	7.52 to 7.70	7.52 to 7.70	–	8.00 to 8.30	7.30 to 7.52	7.30 to 7.52	C=CC(=O)Nc1cc2c(Nc3ccc(OCc4ccccn4)c(Cl)c3)ncnc2cc1C#C[C@H]1CCN(C)C1 [compound 85, N-(4-((3-chloro-4-(pyridin-2-ylmethoxy)phenyl)amino)-7-((1-methylpyrrolidin-3-yl)ethynyl)quinazolin-6-yl)acrylamide]
